The subject of test [1] is Pseudomonas aeruginosa (clinical isolate). The class given is cell-based. To be noted: 3 h. How it is done: (§1) Figure 2 Determination of MBC values for (A) E. coli and (B) P. aeruginosa. Surviving bacterial colonies were detected after incubation with tested peptides for 3 h in MHB.
(§2) Bacterial strains used in this study were clinical isolates of Escherichia coli and Pseudomonas aeruginosa provided by Utrecht University Medical Center, Department of Medical Microbiology, Utrecht, The Netherlands. Both strains were cultured in Mueller Hinton broth (MHB) (Millipore, Sigma-Aldrich).
(§3) Logarithmic growth phase of an o/n bacterial culture was obtained by diluting it 1:100 in MHB and then incubating it for 3 h at 37 °C while shaking. After that, the OD620 of the bacterial suspension was measured and the bacterial solution was diluted to 2 × 10^6 colony forming units/mL (CFU/mL). Bacteria and peptides in MHB were mixed 1:1 (v/v) and incubated for 3 h at 37 °C in a polypropylene round-bottom 96 well-plate (Corning Costar, Glendale, AZ). Subsequently, 10-fold dilutions were made and plated out on Tryptone Soy Agar (TSA) plates and incubated for 24 h at 37 °C to count colonies.

The subject of test [2] is Escherichia coli (clinical isolate). The class given is cell-based. To be noted: clinical isolate, 3 h. How it is done: as §1, §2, §3
Test [3] concerns E. coli O111:B4 LPS stimulated RAW264.7 macrophages. The test can be described thus: TNF-α release ELISA in LPS stimulated macrophages. Particulars: 20 ng/mL E. coli O111:B4 LPS, 24 h; for concentration inhibiting TNF-α release: unable to inhibit up to highest concentration. In kind it is cell-based. The procedure:
(§4) Figure 4 Peptides modulation of cytokine expression in RAW264.7 cells stimulated with LPS. RAW macrophages were stimulated with 20 ng/mL E. coli LPS in the presence of different concentrations of peptide antibiotics. (A) TNF-α and (B) IL-10 release was measured by ELISA in duplicates. Shown are the mean ± SEM of three independent experiments.
(§5) RAW264.7 cells were seeded (5 × 10^4 cells/well) in a 96-well plate and left at 37 °C for overnight adherence. Then, cells were stimulated with […] types of LPS: 20 ng/mL LPS originating from E. coli O111:B4 (LPS-EB, InvivoGen), 50 ng/mL LPS from P. aeruginosa (PA-10 LPS, Sigma -Aldrich), and 5 ng/mL LPS from E. coli K-12 (LPS-EK, InvivoGen) in the presence of 0–5 μM peptides in DMEM for 24 h. After incubation, the nitrite content (corresponding to nitric oxide produced but quickly oxidized in watery solutions to nitrite) in the supernatant was measured using the Griess assay.[28]
(§6) A sandwich ELISA was used to measure TNF-α and IL-10 concentrations in the supernatant of the same treatment (24 h) used for nitrite measurement, using ELISA Duoset kits (R&D systems, Minneapolis, MN) according to the manufacturer’s protocol.
For orientation: An ELISA detects its analyte on a solid surface through an enzyme-linked reagent.

Test [4] shares this test system. Kind of test: IL-10 release ELISA in LPS stimulated macrophages. In kind it is cell-based. To be noted: 20 ng/mL E. coli O111:B4 LPS, 24 h; for concentration inhibiting IL-10 release: unable to inhibit up to highest concentration. The procedure:
as §4, §5, §6

In another test the test system is E. coli O111:B4 LPS. Kind of test: Isothermal titration calorimetry (ITC) of LPS binding. Particulars: 30 μM peptide, 200 μM LPS in 50% PBS, 37 °C, representative of two measurements. The procedure:
Figure 6 (A) Binding profile of LPS and the peptides using ITC. Binding signatures (ΔG, ΔH. and −TΔS) plotted for binding events of LPS with peptides. (B) Spectra of the interaction between LPS and peptides. Murepavadin, PMB, MHM, PMBN, and CPA (30 μM) were titrated against 200 μM E. coli O111:B4 LPS, and heat rates were recorded. Shown is a representative of two measurements.
ITC measurements were performed in a low volume NanoITC (TA Instruments-Waters LLC, New Castle, DE). Two hundred micromolar LPS (from E. coli O111:B4) was prepared in 50% PBS. Peptides of 30 μM concentration were prepared in identical buffer. Three hundred microliters of the peptide solution was added to the chamber (chamber volume is 169 μL, so the rest of the volume flows out and rests around the chamber), and 50 μL of LPS was added to the syringe. At 37 °C, 2 μL of LPS solution was injected into the chamber every 300 s, except the first injection, which consists of 0.96 μL. The experiments were performed at 37 °C while stirring at 300 rpm. The data was analyzed with the NanoAnalyze Software (TA Instruments, Asse, Belgium).
(ITC needs no label: the signal is the heat of the interaction.)

The subject of test [5] is RAW264.7 macrophages stimulated with treated P. aeruginosa. Kind of test: Silent killing: stimulation of macrophages with nonviable bacteria (TNF-α ELISA). In kind it is cell-based. To be noted: RAW264.7 2 h; for macrophage activation (TNF-α) by peptide-treated P. aeruginosa compared to viable untreated bacteria: bacteria 1 × 10^6 CFU/mL treated with 20 μM peptide 1 h at 37 °C, three independent experiments. How it is done: Figure 7 (A) Determination of macrophage activation in response to viable and nonviable bacteria. P. aeruginosa was treated with gentamicin, heat treatment, CATH-2 (control), CPA, murepavadin, MHM, PMB, or PMBN (20 μM of each) and subsequently added to RAW264.7 macrophages. Production of TNF-α was measured using ELISA after 2 h of treatment. (B) Viability of P. aeruginosa after treatment was checked by plating on TSA plates. Data is plotted as the mean ± SEM of three independent experiments. Significant differences were determined by ordinary one-way ANOVA (Tukey’s multiple comparison test).
RAW264.7 cells were seeded (7.5 × 10^4 cells/well) as described above. P. aeruginosa (diluted to 1 × 10^6 CFU/mL in DMEM) was treated separately with heat (1 h at 90 °C), 1 mg/mL gentamicin (1 h at 37 °C), 20 μM CPA (1 h at 37 °C), 20 μM PMB (1 h at 37 °C), 20 μM murepavadin (1 h at 37 °C), 20 μM MHM (1 h at 37 °C), 20 μM CATH-2 (1 h at 37 °C), and DMEM only (untreated sample) (1 h at 4 °C). After treatment, the bacteria were added to the RAW264.7 cells for 2 h of incubation at 37 °C. After that, TNF-α production was determined in the supernatant by ELISA.

Test [6] relates to P. aeruginosa 10 LPS stimulated RAW264.7 macrophages. The test can be described thus: Nitric oxide inhibition assay (Griess), P. aeruginosa 10 LPS. In kind it is cell-based. To be noted: smooth P. aeruginosa 10 LPS 50 ng/mL; 0–5 μM peptide; 24 h. The procedure: (§7) Figure 3 Nitric oxide inhibition in LPS stimulated RAW264.7 by peptide antibiotics. RAW264.7 cells were stimulated with smooth type LPSs (A) E. coli O111:B4 LPS and (B) P. aeruginosa LPS and rough type LPS (C) E. coli K-12 LPS in the presence of different concentrations of peptides: CPA, murepavadin, MHM, PMB, and PMBN. NO production was measured by Griess assay. Shown are the mean ± SEM of three independent experiments. (D) Schematic diagram of the general structure of lipopolysaccharides. It consists of three main subunits: lipid A, the core region, and the O-antigen. Lipid A and the core-region form rough (R)-type LPS. Lipid A, the core-region, and the O-antigen together form smooth (S)-type LPS.
as §5
(Griess reagent forms a coloured azo dye with nitrite.)

Test [7] deals with E. coli O111:B4 LPS stimulated RAW264.7 macrophages. Kind of test: Nitric oxide inhibition assay (Griess), E. coli O111:B4 LPS. The class given is cell-based. Particulars: smooth E. coli O111:B4 LPS 20 ng/mL; 0–5 μM peptide; 24 h. How it is done: as §7, §5
The test system of test [8] is E. coli K-12 LPS stimulated RAW264.7 macrophages. Kind of test: Nitric oxide inhibition assay (Griess), E. coli K-12 LPS. In kind it is cell-based. To be noted: rough E. coli K-12 LPS 5 ng/mL; 0–5 μM peptide; 24 h. The procedure:
as §7, §5

Where a SMILES comes first, the peptide text is derived from it. Bridges are numbered along the chain shown (N, C = ends). [ ]: non-standard residue; d: D form. Tle = CC(C)(C)[C@H](N)C(=O)O; dDab = NCC[C@@H](N)C(=O)O; hSer = N[C@@H](CCO)C(=O)O; Orn = NCCC[C@H](N)C(=O)O; Dab = NCC[C@H](N)C(=O)O

Usually Kd stands for the concentration at which binding is half-saturated. Higher therefore signals a looser complex. As for `CC[C@H](C)[C@@H]1NC(=O)[C@H](Cc2c[nH]c3ccccc23)NC(=O)[C@H]([C@@H](C)O)NC(=O)[C@@H]2CCCN2C(=O)[C@H]2CCCN2C(=O)[C@H](CO)NC(=O)[C@H](C)NC(=O)[C@H](CCN)NC(=O)[C@H](CCN)NC(=O)[C@H](Cc2c[nH]c3ccccc23)NC(=O)[C@H](CCN)NC(=O)[C@@H](CCN)NC(=O)[C@H](CCCN)NC(=O)[C@H](CCN)NC1=O` [murepavadin] (cyclo(TWI[Dab][Orn][dDab][Dab]W[Dab][Dab]AS[dP]P)), the “MBC (complete killing) against P. aeruginosa” value (shortened to “MBC … against P. aeruginosa”) in test [1] is 5 to 10 µM. The “MBC (complete killing) against E. coli” value in test [2] was over 20 µM. The “concentration inhibiting TNF-α release” value in test [3] was over 5 µM. Also, the “concentration inhibiting IL-10 release” value in test [4] was over 5 µM. The compound also came in with a Kd with E. coli O111:B4 LPS of 2020 nM. Moreover, in [5], the “macrophage activation (TNF-α) by peptide-treated P. aeruginosa compared to viable untreated bacteria” value is “no significant reduction in macrophage activation”.

Take `CC(C)[C@@H]1NC(=O)[C@@H]2CCCN2C(=O)[C@@H](C)NC(=O)[C@H](CO)NC(=O)[C@H](C)NC(=O)[C@H](C(C)(C)C)NC(=O)[C@H](CCO)NC(=O)[C@H](Cc2c[nH]c3ccccc23)NC(=O)[C@H](CCO)NC(=O)[C@@H](CCN)NC(=O)[C@H](CCC(=O)O)NC(=O)[C@H](CCN)NC(=O)[C@H](Cc2ccc(O)cc2)NC(=O)[C@H]([C@@H](C)O)NC1=O` [MHM] (cyclo(VTY[Dab]E[dDab][hSer]W[hSer][Tle]AS[dA]P)): the “MBC … against P. aeruginosa” value in test [1] was over 20 µM. The “MBC (complete killing) against E. coli” value in test [2] is over 20 µM. Also, the “concentration inhibiting TNF-α release” value in test [3] is over 5 µM. Also, the “concentration inhibiting IL-10 release” value in [4] is over 5 µM. In the test with E. coli O111:B4 LPS, this compound showed a Kd of 970 nM. Moreover, the “macrophage activation (TNF-α) by peptide-treated P. aeruginosa compared to viable untreated bacteria” value in test [5] was “no significant reduction in macrophage activation”.

Consider `CNC(C)C1CCC(N)C(OC2C(N)CC(N)C(OC3OCC(C)(O)C(NC)C3O)C2O)O1` (centres unmarked) [Gentamicin], for which the “macrophage activation (TNF-α) by gentamicin-killed P. aeruginosa compared to viable untreated bacteria” value in [5] (bacteria treated with 1 mg/mL gentamicin 1 h at 37 °C) is “almost same level as viable untreated bacteria”.

As for polymyxin B [PMB], the “inhibition of LPS-induced nitric oxide production (in words)” value in test [6], in test [7] and in [8] was “dose-dependently active” throughout. Further, the “inhibition of TNF-α release (in words)” value in test [3] is on record as “slightly less activity compared to CPA”. Also, the “inhibition of IL-10 release (in words)” value in test [4] was “slightly less activity compared to CPA”. The affinity with E. coli O111:B4 LPS, expressed as Kd, was 2500 nM.

Take “chicken cathelicidin 2 (LVQRGRFGRFLRKIRRFRPKVTITIQGSARFG; Cathelicidin-2; UniProt Q2IAL7 123-154, looked up) [CATH-2, chicken cathelicidin 2, control peptide for which silent killing was originally described]”: the “macrophage activation (TNF-α) by peptide-treated P. aeruginosa compared to viable untreated bacteria” value in [5] is on record as “significantly reduced immune response”.

With `CC(C)C[C@@H]1NC(=O)[C@@H](Cc2ccccc2)NC(=O)[C@H](CCN)NC(=O)[C@@H](NC(=O)[C@H](CCN)NC(=O)[C@@H](N)[C@@H](C)O)CCNC(=O)[C@H]([C@@H](C)O)NC(=O)[C@H](CCN)NC(=O)[C@H](CCN)NC1=O` [PMBN, polymyxin B nonapeptide] (H-T[Dab][Dab][Dab][dF]L[Dab][Dab]T; lactam 3-C (inferred); N-terminus assumed), the “MBC … against P. aeruginosa” value in test [1] was over 20 µM. The “MBC (complete killing) against E. coli” value in [2] was over 20 µM. The “inhibition of LPS-induced nitric oxide production (in words)” value in test [6] and in test [7] was “partially inhibited nitric oxide production only at 5 μM” in each case. Also, the “inhibition of IL-10 release (in words)” value in [4] is given as “inhibit IL-10 release dose-dependently but at concentrations much higher than those required for CPA or PMB”. Also, binding in the test with E. coli O111:B4 LPS was put at a Kd of 3800 nM.

Values taken from paper PMC10012172, “Chimeric Peptidomimetic Antibiotic Efficiently Neutralizes Lipopolysaccharides (LPS) and Bacteria-Induced Activation of RAW Macrophages” (ACS Infectious Diseases, 2023).
